Measured values reported in patent publication US11173145B2, “Compounds useful as inhibitors of indoleamine 2,3-dioxygenase and/or tryptophan dioxygenase” (Board of Regents, The University of Texas System, priority 2017, dated 2021).
pIC50: −log10 of the molar value.

Molecular target: T1, IDO1 (Homo sapiens, UniProt P14902)
T1 construct: endogenous in cells; host or cells: HeLa cells (ATCC), IFNgamma-induced
Assay: IDO1 cell-based assay (HeLa cells, IFNgamma-induced, N-formylkynurenine/L-tryptophan by RFMS)
Conditions: 10 ng/mL IFNgamma, 24 hours
Method: HeLa cells were obtained from the American Type Culture Collection (ATCC) and maintained in DMEM media containing 10% FBS. Cells (7,000/well) were seeded onto a 384 well plate in 50 μL of media and incubated at 37° C., 5% CO2 overnight. Cell media was aspirated, fresh media containing 10 ng/mL IFNgamma was added, and cells were incubated in absence or presence of various concentrations of test compound (final 0.5% DMSO) for 24 hours. Aliquots of the cell conditioned media were removed from the cell plate, and mixed with an equal volume of 200 mM ZnSO4 to precipitate media containing proteins. Two volumes of acetonitrile were added, mixed, and samples were then centrifuged at 2250G for 20 minutes at 4° C. Aliquots of the supernatant were diluted 1:10 in 0.1% formic acid containing 3 μM of deuterated Tryptophan as an internal standard.
Samples were analyzed via RFMS to quantify N-Formyl Kynurenine (AUC) and L-tryptophan (AUC). A C18 cartridge was used with mobile phases of 0.1% Formic Acid and 80% ACN/0.1% Formic Acid under isocratic conditions. Dose-response curves were analyzed using IC50 regression curve fitting (GeneData Screener). […] Cell viability was also assessed using the Cell Titer Glo Kit (Promega) following manufacturer recommendation.

T1 sequence (P14902 whole entry): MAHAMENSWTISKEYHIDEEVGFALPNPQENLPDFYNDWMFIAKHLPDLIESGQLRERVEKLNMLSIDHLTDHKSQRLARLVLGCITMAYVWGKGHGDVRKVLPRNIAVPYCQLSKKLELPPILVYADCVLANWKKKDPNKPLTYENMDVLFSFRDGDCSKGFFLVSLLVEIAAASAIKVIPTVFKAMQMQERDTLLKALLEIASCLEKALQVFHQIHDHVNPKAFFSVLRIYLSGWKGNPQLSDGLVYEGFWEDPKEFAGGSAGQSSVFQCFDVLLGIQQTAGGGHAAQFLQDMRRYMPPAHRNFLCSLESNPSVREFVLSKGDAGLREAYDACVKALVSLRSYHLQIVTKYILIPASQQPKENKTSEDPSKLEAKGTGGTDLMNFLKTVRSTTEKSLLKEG

## CCC(NC(=O)c1ccc(Cl)cc1)[C@H]1[C@@H]2C[C@@H](O)C[C@@H]21 (single isomer, unassigned) [Compound 3]
  pIC50: 5.70 to 6.70

## CCC(NC(=O)c1ccc(Cl)cc1)[C@H]1[C@@H]2C[C@H](O)C[C@@H]21 (stereo partly drawn) [Compound 1, 4-chloro-N-(1-((1R,3r,5S,6r)-3-hydroxybicyclo[3.1.0]hexan-6-yl)propyl)benzamide]
  pIC50: 5.30 to 5.70

## CCC(NC(=O)c1ccc(Cl)cc1)[C@H]1[C@@H]2C[C@@H](Oc3ncnc4ccc(F)cc34)C[C@@H]21 (stereo partly drawn) [Compound 5, 4-chloro-N-(1-((1R,3s,5S,6r)-3-((6-fluoroquinazolin-4-yl)oxy)bicyclo[3.1.0]hexan-6-yl)propyl)benzamide]
  pIC50: > 6.70

## CCC(NC(=O)c1ccc(Cl)cc1)[C@H]1[C@@H]2C[C@@H](n3cnc4ccc(F)cc4c3=O)C[C@@H]21 (stereo partly drawn) [Compound 6, 4-chloro-N-(1-((1R,3s,5S,6r)-3-(6-fluoro-4-oxoquinazolin-3(4H)-yl)bicyclo[3.1.0]hexan-6-yl)propyl)benzamide]
  pIC50: > 6.70

## O=C(Cc1ccc(Cl)cc1)NC1[C@H]2C[C@H](Oc3ccnc4ccc(F)cc34)C[C@@H]12 (stereo partly drawn) [Compound 7, 2-(4-chlorophenyl)-N-((1R,3s,5S,6r)-3-((6-fluoroquinolin-4-yl)oxy)bicyclo[3.1.0]hexan-6-yl)acetamide]
  pIC50: > 6.70

## O=C(Nc1ccc(Cl)cc1)C1[C@H]2CC(Oc3ccnc4ccccc34)C[C@@H]12 (stereo partly drawn) [Compound 8, (1R,5S)-N-(4-chlorophenyl)-3-(quinolin-4-yloxy)bicyclo[3.1.0]hexane-6-carboxamide]
  pIC50: 5.30 to 5.70

## O=C(Nc1ccc(Cl)cc1)N[C@H]1[C@@H]2C[C@@H](Oc3ccnc4ccc(F)cc34)C[C@@H]21 [Compound 10, 1-(4-chlorophenyl)-3-((1R,3s,5S,6r)-3-((6-fluoroquinolin-4-yl)oxy)bicyclo[3.1.0]hexan-6-yl)urea]
  pIC50: > 6.70

## Clc1ccc(-c2nnc(C3C4CC(Oc5ccnc6ccccc56)CC43)o2)cc1 (stereo not drawn) [Compound 11, 2-(4-chlorophenyl)-5-(3-(quinolin-4-yloxy)bicyclo[3.1.0]hexan-6-yl)-1,3,4-oxadiazole]
  pIC50: < 5.30

## CC(NC(=O)c1ccc(Cl)cc1)[C@H]1[C@@H]2C[C@@H](Oc3ncnc4ccc(F)cc34)C[C@@H]21 (stereo partly drawn) [Compound 13, 4-chloro-N-(1-((1R,3s,5S,6r)-3-((6-fluoroquinazolin-4-yl)oxy)bicyclo[3.1.0]hexan-6-yl)ethyl)benzamide]
  pIC50: > 6.70

## CCC(NC(=O)c1ccc(Cl)cc1)[C@H]1[C@@H]2C[C@@H](Oc3ccc(F)cc3)C[C@@H]21 (stereo partly drawn) [Compound 14, 4-chloro-N-(1-((1R,3s,5S,6r)-3-(4-fluorophenoxy)bicyclo[3.1.0]hexan-6-yl)propyl)benzamide]
  pIC50: > 6.70

## CCC(NC(=O)c1ccc(Cl)cc1)[C@H]1[C@@H]2C[C@@H](Oc3ccnc(C)c3)C[C@@H]21 (stereo partly drawn) [Compound 15, 4-chloro-N-(1-((1R,3s,5S,6r)-3-((2-methylpyridin-4-yl)oxy)bicyclo[3.1.0]hexan-6-yl)propyl)benzamide]
  pIC50: > 6.70

## O=C(NCc1ccc(Cl)cc1)C1[C@H]2CC(Oc3ccnc4ccccc34)C[C@@H]12 (stereo partly drawn) [Compound 16, (1R,5S)-N-(4-chlorobenzyl)-3-(quinolin-4-yloxy)bicyclo[3.1.0]hexane-6-carboxamide]
  pIC50: < 5.30

## O=C(NCc1ccc(Cl)cc1)C1[C@H]2CC(Oc3cc(C(F)(F)F)nc4ccc(F)cc34)C[C@@H]12 (stereo partly drawn) [Compound 17, (1R,5S)-N-(4-chlorobenzyl)-3-((6-fluoro-2-(trifluoromethyl)quinolin-4-yl)oxy)bicyclo[3.1.0]hexane-6-carboxamide]
  pIC50: < 5.30

## CCC(NC(=O)c1ccc(Cl)cc1)[C@H]1[C@@H]2C[C@@H](Oc3ccc(F)nc3)C[C@@H]21 (stereo partly drawn) [Compound 18, 4-chloro-N-(1-((1R,3s,5S,6r)-3-((6-fluoropyridin-3-yl)oxy)bicyclo[3.1.0]hexan-6-yl)propyl)benzamide]
  pIC50: > 6.70

## CCC(NC(=O)c1ccc(Cl)cc1)[C@H]1[C@@H]2C[C@@H](Oc3cc(C)nc4ccc(F)cc34)C[C@@H]21 (stereo partly drawn) [Compound 20, 4-chloro-N-(1-((1R,3s,5S,6r)-3-((6-fluoro-2-methylquinolin-4-yl)oxy)bicyclo[3.1.0]hexan-6-yl)propyl)benzamide]
  pIC50: > 6.70

## CCC(NC(=O)c1ccc(Cl)cc1)[C@H]1[C@@H]2C[C@@H](Oc3ncnc4cc(Cl)ccc34)C[C@@H]21 (stereo partly drawn) [Compound 21, 4-chloro-N-(1-((1R,3s,5S,6r)-3-((7-chloroquinazolin-4-yl)oxy)bicyclo[3.1.0]hexan-6-yl)propyl)benzamide]
  pIC50: > 6.70

## CCC(NC(=O)c1ccc(Cl)cc1)C1C2CC(Oc3cc(C(F)(F)F)nc4ccc(F)cc34)CC21 [Compound 22, 4-chloro-N-(1-((1R,3s,5S,6r)-3-((6-fluoro-2-(trifluoromethyl)quinolin-4-yl)oxy)bicyclo[3.1.0]hexan-6-yl)propyl)benzamide]
  pIC50: > 6.70

## O=C(NC[C@H]1[C@H]2C[C@H](Oc3cc(C(F)(F)F)nc4ccc(F)cc34)C[C@@H]12)c1ccc(Cl)cc1 [Compound 24, 4-chloro-N-(((1R,3s,5S,6s)-3-((6-fluoro-2-(trifluoromethyl)quinolin-4-yl)oxy)bicyclo[3.1.0]hexan-6-yl)methyl)benzamide]
  pIC50: 5.70 to 6.70

## O=C(NC1C2CC(Oc3cc(C(F)(F)F)nc4ccc(F)cc34)CC21)c1ccc(Cl)cc1 (stereo not drawn) [Compound 25, 4-chloro-N-(3-((6-fluoro-2-(trifluoromethyl)quinolin-4-yl)oxy)bicyclo[3.1.0]hexan-6-yl)benzamide]
  pIC50: < 5.30

## O=C(NC1C2CC(Oc3ccnc4ccccc34)CC21)c1ccc(Cl)cc1 (stereo not drawn) [Compound 26, 4-chloro-N-(3-(quinolin-4-yloxy)bicyclo[3.1.0]hexan-6-yl)benzamide]
  pIC50: 5.70 to 6.70

## O=S(=O)(Cc1ccc(Br)cc1)NC1C2CC(Oc3ccnc4ccccc34)CC21 (stereo not drawn) [Compound 27, 1-(4-bromophenyl)-N-(3-(quinolin-4-yloxy)bicyclo[3.1.0]hexan-6-yl)methanesulfonamide]
  pIC50: < 5.30

## O=S(=O)(NC1C2CC(Oc3ccnc4ccccc34)CC21)c1ccc(Cl)cc1 (stereo not drawn) [Compound 28, 4-chloro-N-(3-(quinolin-4-yloxy)bicyclo[3.1.0]hexan-6-yl)benzenesulfonamide]
  pIC50: < 5.30

## O=C(Nc1ccc(Cl)cc1)N[C@H]1[C@@H]2C[C@H](Oc3ccnc4ccc(F)cc34)C[C@@H]21 [Compound 29, 1-(4-chlorophenyl)-3-((1R,3r,5S,6r)-3-((6-fluoroquinolin-4-yl)oxy)bicyclo[3.1.0]hexan-6-yl)urea]
  pIC50: 5.70 to 6.70

## O=C(Cc1ccc(Cl)cc1)NC1[C@H]2CC(Oc3ccnc4ccccc34)C[C@@H]12 (stereo partly drawn) [Compound 30, 2-(4-chlorophenyl)-N-((1R,5S)-3-(quinolin-4-yloxy)bicyclo[3.1.0]hexan-6-yl)acetamide]
  pIC50: > 6.70

## O=C(Cc1ccc(Cl)cc1)NC1[C@H]2CC(Oc3ccnc4ccc(F)cc34)C[C@@H]12 (stereo partly drawn) [Compound 31, 2-(4-chlorophenyl)-N-((1R,3r,5S)-3-((6-fluoroquinolin-4-yl)oxy)bicyclo[3.1.0]hexan-6-yl)acetamide]
  pIC50: 5.70 to 6.70

## O=C(NC[C@@H]1[C@H]2C[C@@H](Oc3ccc4nccc(Cl)c4c3)C[C@@H]12)c1ccc(Cl)cc1 [Compound 33, 4-chloro-N-(((1R,3r,5S,6r)-3-((4-chloroquinolin-6-yl)oxy)bicyclo[3.1.0]hexan-6-yl)methyl)benzamide]
  pIC50: 5.70 to 6.70

## CCC(NC(=O)c1ccc(Cl)cc1)[C@H]1[C@@H]2C[C@@H](n3cnc4cc(F)ccc4c3=O)C[C@@H]21 (stereo partly drawn) [Compound 34, 4-chloro-N-(1-((1R,3s,5S,6r)-3-(7-fluoro-4-oxoquinazolin-3(4H)-yl)bicyclo[3.1.0]hexan-6-yl)propyl)benzamide]
  pIC50: > 6.70

## CCC(NC(=O)c1ccc(Cl)cc1)[C@H]1[C@@H]2C[C@@H](Oc3ncnc4cc(F)ccc34)C[C@@H]21 (stereo partly drawn) [Compound 35, 4-chloro-N-(1-((1R,3s,5S,6r)-3-((7-fluoroquinazolin-4-yl)oxy)bicyclo[3.1.0]hexan-6-yl)propyl)benzamide]
  pIC50: > 6.70

## CCC(NC(=O)c1ccc(Cl)cc1)C1C2CC(Oc3ncnc4cccc(F)c34)CC21 [Compound 37, 4-chloro-N-(1-((1R,3s,5S,6r)-3-((5-fluoroquinazolin-4-yl)oxy)bicyclo[3.1.0]hexan-6-yl)propyl)benzamide]
  pIC50: > 6.70

## CCC(NC(=O)c1ccc(Cl)cc1)[C@H]1[C@@H]2C[C@@H](Oc3ncccc3F)C[C@@H]21 (stereo partly drawn) [Compound 39, 4-chloro-N-(1-((1R,3s,5S,6r)-3-((3-fluoropyridin-2-yl)oxy)bicyclo[3.1.0]hexan-6-yl)propyl)benzamide]
  pIC50: > 6.70

## CCC(NC(=O)c1ccc(Cl)cc1)[C@H]1[C@@H]2C[C@@H](Oc3cccc(C)n3)C[C@@H]21 (stereo partly drawn) [Compound 40, 4-chloro-N-(1-((1R,3s,5S,6r)-3-((6-methylpyridin-2-yl)oxy)bicyclo[3.1.0]hexan-6-yl)propyl)benzamide]
  pIC50: > 6.70

## CCC(NC(=O)c1ccc(Cl)cc1)[C@H]1[C@@H]2C[C@@H](Oc3ncccc3C)C[C@@H]21 (stereo partly drawn) [Compound 41, 4-chloro-N-(1-((1R,3s,5S,6r)-3-((3-methylpyridin-2-yl)oxy)bicyclo[3.1.0]hexan-6-yl)propyl)benzamide]
  pIC50: > 6.70

## CCC(NC(=O)c1ccc(Cl)cc1)[C@H]1[C@@H]2C[C@@H](Oc3cc(F)ccc3F)C[C@@H]21 (stereo partly drawn) [Compound 42, 4-chloro-N-(1-((1R,3s,5S,6r)-3-(2,5-difluorophenoxy)bicyclo[3.1.0]hexan-6-yl)propyl)benzamide]
  pIC50: > 6.70
